According to PMC5429769, “Rational development of Stafib-2: a selective, nanomolar inhibitor of the transcription factor STAT5b” (Scientific Reports, 2017):
Residue numbers refer to the chain shown, from its start.

Experiments:
STAT5b-GFP = target: T1, STAT5b-GFP (Homo sapiens, UniProt P51692); experiment: STAT5b Tyr699 phosphorylation in STAT5b-GFP-transfected K562 cells (Western blot); format: cell-based
T1 sequence (P51692 1-787): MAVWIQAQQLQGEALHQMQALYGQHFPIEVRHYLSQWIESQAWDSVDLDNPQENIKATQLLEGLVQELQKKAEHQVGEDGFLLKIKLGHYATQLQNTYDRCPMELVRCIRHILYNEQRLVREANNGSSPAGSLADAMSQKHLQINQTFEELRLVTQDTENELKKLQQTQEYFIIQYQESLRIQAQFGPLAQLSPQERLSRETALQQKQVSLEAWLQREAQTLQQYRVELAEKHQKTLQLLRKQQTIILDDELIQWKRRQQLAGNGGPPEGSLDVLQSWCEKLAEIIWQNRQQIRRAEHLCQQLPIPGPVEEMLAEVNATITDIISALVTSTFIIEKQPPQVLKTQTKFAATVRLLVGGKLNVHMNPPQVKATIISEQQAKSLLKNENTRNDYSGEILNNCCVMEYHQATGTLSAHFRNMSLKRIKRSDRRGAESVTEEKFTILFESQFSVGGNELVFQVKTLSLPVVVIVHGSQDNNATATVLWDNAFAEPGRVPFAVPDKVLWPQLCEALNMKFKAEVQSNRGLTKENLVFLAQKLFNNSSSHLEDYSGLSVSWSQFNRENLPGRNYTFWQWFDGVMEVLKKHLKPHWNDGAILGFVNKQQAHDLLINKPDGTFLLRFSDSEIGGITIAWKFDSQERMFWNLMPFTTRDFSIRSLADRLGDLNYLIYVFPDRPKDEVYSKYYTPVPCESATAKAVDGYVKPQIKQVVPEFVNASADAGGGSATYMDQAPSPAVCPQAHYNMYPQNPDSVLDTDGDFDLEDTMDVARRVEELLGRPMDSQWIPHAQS

STAT5b Arg618Ala = target: T2, STAT5b Arg618Ala (Homo sapiens, UniProt P51692, R618A); experiment: Isothermal titration calorimetry, STAT5b Arg618Ala; format: binding; details: ITC, 25 °C
T2 sequence (P51692 1-787 R618A): T1 sequence (P51692 1-787) with R618A

STAT4 = target: T3, STAT4 (Homo sapiens, UniProt Q14765); experiment: Fluorescence polarization assay, STAT4; format: binding
T3 sequence (Q14765 1-748): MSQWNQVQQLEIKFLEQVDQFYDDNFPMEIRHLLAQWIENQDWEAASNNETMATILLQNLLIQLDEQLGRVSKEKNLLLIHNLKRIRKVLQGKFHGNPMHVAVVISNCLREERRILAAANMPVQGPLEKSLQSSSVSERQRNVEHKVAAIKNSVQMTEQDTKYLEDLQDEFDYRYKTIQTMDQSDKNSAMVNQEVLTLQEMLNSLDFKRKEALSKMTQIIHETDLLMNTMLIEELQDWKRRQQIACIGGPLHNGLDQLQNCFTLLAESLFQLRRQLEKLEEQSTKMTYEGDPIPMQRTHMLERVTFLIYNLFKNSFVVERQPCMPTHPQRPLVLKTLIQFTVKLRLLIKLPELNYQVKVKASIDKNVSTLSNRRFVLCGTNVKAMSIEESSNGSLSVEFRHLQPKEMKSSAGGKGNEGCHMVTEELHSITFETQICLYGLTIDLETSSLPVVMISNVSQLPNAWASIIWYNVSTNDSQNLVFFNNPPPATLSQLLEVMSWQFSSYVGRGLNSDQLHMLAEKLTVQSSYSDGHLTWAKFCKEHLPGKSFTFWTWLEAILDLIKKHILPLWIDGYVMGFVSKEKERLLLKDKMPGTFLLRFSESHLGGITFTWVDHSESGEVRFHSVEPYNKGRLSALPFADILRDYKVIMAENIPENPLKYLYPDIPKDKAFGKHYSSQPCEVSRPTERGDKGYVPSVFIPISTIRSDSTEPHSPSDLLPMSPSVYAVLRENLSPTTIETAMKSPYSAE

**Q.** How did the “inhibition of STAT5b phosphorylation” value (STAT5b-GFP) turn out when `O=C(COc1ccc(C(=O)Nc2ccc(Oc3ccccc3)cc2)cc1)NCc1ccc(OP(=O)(O)O)c(OP(=O)(O)O)c1` [compound 4, 4-((2-(4-((4-phenoxyphenyl)carbamoyl)phenoxy)acetamido)methyl)-1,2-phenylene bis(dihydrogen phosphate)] was run?
**A.** did not show significant activity

**Q.** And the Kd (STAT5b Arg618Ala)?
**A.** 5.6 ± 1.7 µM

**Q.** And the IC50 (STAT4)?
**A.** 9.1 ± 0.3 µM
